Results: patent US11730743B2, “Protection of cells from degeneration and treatment of geographic atrophy” (University of Kentucky Research Foundation, priority 2012, dated 2023)

How the values were obtained:
[1] = test system: wild-type mice; test: Alu RNA- or pAlu-induced RPE degeneration after subretinal injection (fundus photographs, ZO-1 flat mounts); format: in vivo; conditions: subretinal pAlu, test agent intravitreous
Experimental: Subretinal injection and imaging. Subretinal injections (1 μL) in mice were performed using a Pico-Injector (PLI-100, Harvard Apparatus). In vivo transfection of plasmids was achieved using 10% Neuroporter (Genlantis). Fundus imaging was performed on a TRC-50 IX camera (Topcon) linked to a digital imaging system (Sony). Immunolabeling of RPE flat mounts was performed using antibodies against human zonula occludens-1 (Invitrogen).
Fundus photography. Retinal photographs of dilated mouse eyes were taken with a TRC-50 IX camera (Topcon) linked to a digital imaging system (Sony).
Immunolabeling. Human eyes fixed in 2-4% paraformaldehyde were prepared as eyecups, cryoprotected in 30% sucrose, embedded in optimal cutting temperature compound (Tissue-Tek OCT; Sakura Finetek), and cryosectioned into 10 μm sections. Depigmentation was achieved using 0.25% potassium permanganate and 0.1% oxalic acid. Immunohistochemical staining was performed with the rabbit antibody against NLRP3 (1:100, Sigma Aldrich) or rabbit antibody against Caspase-1 (prediluted, AbCam). Isotype IgG was substituted for the primary antibody to assess the specificity of the staining. Bound antibody was detected with biotin-conjugated secondary antibodies, followed by incubation with ABC reagent and visualized by Vector Blue (Vector Laboratories). Levamisole (Vector Laboratories) was used to block endogenous alkaline phosphatase activity. Slides were washed in PBS, counterstained with neutral red (Fisher Scientific), rinsed with deionized water, air dried, and then mounted in Vectamount (Vector Laboratories). Fluorescent labeling of human tissue was performed with the rabbit antibody against PYCARD (1:50, Clone N-15, Santa Cruz Biotechnology). Immunolabeling was visualized by fluorescently conjugated anti-rabbit secondary antibody (Invitrogen). Tissue autofluorescence was quenched by incubating the sections in 0.3% Sudan black (Fisher Scientific). Sections were mounted in Vectashield with DAPI (Vector Laboratories). Mouse RPE/choroid flat mounts were fixed with 4% paraformaldehyde or 100% methanol, stained with rabbit antibodies against human zonula occludens-1 (1:100, Invitrogen) and visualized with Alexa594 (Invitrogen). All images were obtained using the Leica SP-5 or Zeiss Axio Observer Z1 microscopes.
Subretinal injection. Subretinal injections (1 μL) in mice were performed using a Pico-Injector (PLI-100, Harvard Apparatus). In vivo transfection of plasmids coding for two different Alu sequences (pAlu) or empty control vector (pNull) (Bennett et al., 2008; Kaneko et al., 2011; Shaikh et al., 1997) was achieved using 10% Neuroporter (Genlantis). AAV1-BEST1-Cre (Alexander and Hauswirth, 2008) or AAV1-BEST1-GFP were injected at […] pfu/mL and in vitro transcribed Alu RNA was injected at 0.3 mg/mL.
Drug treatments. siRNAs formulated in siRNA buffer (20 mM KCL, 0.2 mM MgCl2 in HEPES buffer at pH 7.5; Dharmacon) or phosphate buffered saline (PBS; Sigma-Aldrich); the TLR4 antagonist Ultra Pure Rhodobacter sphaeroides LPS (LPS-RS, InvivoGen), a peptide inhibitor of MyD88 homodimerization IMG-2005 (IMGENEX), control inhibitor (IMGENEX), recombinant IL-18 (Medical & Biological Laboratories), neutralizing rat antibodies against mouse IL-1β (IMGENEX), neutralizing rat antibodies against mouse IL-18 (Medical & Biological Laboratories), isotype control IgGs (R&D Systems or eBioscience as appropriate), Caspase-1 inhibitor Z-WEHD-FMK (R&D Systems), Caspase-3 inhibitor Z-DEVD-FMK (R&D Systems), Caspase control inhibitor Z-FA-FMK (R&D Systems), (2R,4R)-APDC (Enzo Life Sciences), Glipizide (Sigma-Aldrich), Glyburide (Sigma-Aldrich), and P2X7 receptor antagonist A438079 (Tocris Bioscience) were dissolved in phosphate buffered saline (PBS; Sigma-Aldrich) or dimethyl sulfoxide (DMSO; Sigma-Aldrich), and injected into the vitreous humor in a total volume of 1 μL with a 33-gauge Exmire microsyringe (Ito Corporation). […]

[2] = test system: NLRP3; test: NLRP3 mRNA by real-time RT-PCR in human RPE cells; format: cell-based
Excerpt: mRNA abundance. Transcript abundance was quantified by real-time RT-PCR using an Applied Biosystems 7900 HT Fast Real-Time PCR system using the 2^−ΔΔct method.
Real-time PCR. Total RNA was extracted from tissues or cells using Trizol reagent (Invitrogen) according to manufacturer's recommendations, DNase treated and reverse transcribed (QuantiTect, Qiagen). The RT products (cDNA) were amplified by real-time quantitative PCR (Applied Biosystems 7900 HT Fast Real-Time PCR system) with Power SYBR green Master Mix. Oligonucleotide primers specific for human IL1B, human NLRP3, human 18S rRNA, mouse Myd88, mouse Nlrp3, mouse 1118, and mouse 18S rRNA were used. The QPCR cycling conditions were 50° C. for 2 min, 95° C. for 10 min followed by 40 cycles of a two-step amplification program (95° C. for 15 s and 58° C. for 1 min). At the end of the amplification, melting curve analysis was applied using the dissociation protocol from the Sequence Detection system to exclude contamination with unspecific PCR products. […] For negative controls, no RT products were used as templates in the QPCR and verified by the absence of gel-detected bands. Relative expressions of target genes were determined by the 2^−ΔΔct method.

[3] = test system: IL18; test: IL18 mRNA by real-time RT-PCR in human RPE cells; format: cell-based

N[C@@]1(C(=O)O)CN[C@@H](C(=O)O)C1 [APDC, (2R,4R)-APDC]
blocked: pAlu-induced RPE degeneration [1] | pAlu-induced NLRP3 mRNA upregulation [2] | pAlu-induced IL18 mRNA upregulation [3]
